Source: patent US10947503B2, “Method for modifying T cell population” (International Institute of Cancer Immunology, Inc., priority 2014, dated 2021)

Legend:
[1] = system: human CD4+CD45RO+ T cells; test: Modulation of T cell differentiation by RAR agonists and antagonists; assay type: cell-based; details: 8 days culture, vs DMSO
Source text: Human CD4^+CD45RO^+ T cells were stimulated with an anti-CD3/CD28 antibody and IL-2, and cultured in the presence of DMSO as a control, or various RAR agonists (FIG. 30) or RAR antagonists (FIG. 31) for 8 days.

[2] = system: terminal effector fraction of human WT1332-specific CD4+ T cell clone; test: Induction of memory T cells from terminal effector T cells; assay type: cell-based
Source text: A terminal effector fraction contained in a human WT1332-specific CD4+ T cell clone derived from a single cell was stimulated with dendritic cells which had been pulsed with human WT1332, and cultured in the presence of DMSO (control), retinoic acid or an RAR antagonist (LE540) for 7 days. Then, the cells were labelled with CFSE, re-stimulated with dendritic cells which had been pulsed with human […], and further cultured in the presence of DMSO (control), retinoic acid or an RAR antagonist (LE540). After culturing for 4 or 6 days, the cells were subjected to an FACS analysis and a ^3H-thymidine incorporation assay (cell proliferation assay).

[3] = system: CD4+ T cells with human WT1332-specific TCR gene; test: WT1332-specific TCR-introduced CD4+ T cells: memory proportion and proliferation on re-stimulation; assay type: cell-based
Protocol: CD4^+ T cells into which a human WT1332-specific TCR gene was introduced were stimulated with human WT1332, and cultured in the presence of DMSO (control), retinoic acid or an RAR antagonist (LE540). As a result, when the T cells were cultured in the presence of the RAR antagonist, the proportion of memory-type CD4^+ T cells was increased (FIG. 24). Further, when the T cell population cultured in the presence of the RAR antagonist was re-stimulated with PBMC which had been pulsed with human WT1332, and cultured (T cell: 30,000 cells/well; PBMC: 100,000 cells/well; […]

[4] = system: human CD4+CD45RO+ T cells; test: Ability to form memory T cell population after re-stimulation; assay type: cell-based; details: 8 days culture, re-stimulated and cultured for 7 days
Source text: Human CD4^+CD45RO^+ T cells were stimulated with an anti-CD3/CD28 antibody, cultured in the presence of DMSO (control), retinoic acid or an RAR antagonist (LE540) for 8 days, and re-stimulated and cultured with an anti-CD3/CD28 antibody and IL-2, or IL-7 for 7 days. The subsets of the T cells were identified.

[5] = system: Tumor cells expressing both WT1 protein and luciferase; test: Anti-tumor immunity induction with human WT1 peptide and RAR antagonist in NOG mice; assay type: in vivo, mouse; details: for survival period: intraperitoneal, compared with control (DMSO)
Protocol: Tumor cells expressing both WT1 protein and luciferase were subcutaneously implanted into a ventral part of NOD/Shi-scid, IL-2Rγnull mice (NOG mice). Three days after the implantation, 10^4 human WT1332-specific CD4^+ T cells (GPP positive) were injected intravenously (day 0). Eight hours after the intravenous injection, DMSO (control), retinoic acid or LE540 was administered intraperitoneally. One day after the intravenous injection, CD3^+ T cells were removed, and 2×10^6 human peripheral blood mononuclear cells which had been pulsed with the human WT1332 peptide were injected intravenously (day 1). Then, a survival period was observed. In addition, the amount of tumor was determined every week by administering luciferin which was a substrate for luciferase and measuring the intensity of emission induced by luciferase from outside the body.

[6] = system: human CD4+CD45RO+ T cells; test: Resistance to apoptosis after anti-Fas antibody (7C11) stimulation; assay type: cell-based; details: 8 days culture, then anti-Fas antibody
Protocol: Human CD4^+CD45RO^+ T cells were cultured in the presence of DMSO (control), retinoic acid or an RAR antagonist (LE540) for 8 days, and then stimulated with an anti-Fas antibody (7C11). The proportion of apoptotic cells and the proportion of living cells were determined and analyzed. As a result, the apoptotic cells were increased and the living cells were decreased by enhancing the differentiation of cells by retinoic acid. In contrast, when the differentiation was suppressed by the RAR antagonist, the apoptotic cells were decreased and the living cells were increased (FIG. 20).

[7] = system: human CD4+CD45RO+ T cells; test: Division ability and proliferation ability of memory T cells after re-stimulation; assay type: cell-based; details: 8 days culture, re-stimulated with anti-CD3/CD28 antibody and IL-2, or IL-7
Protocol: Human CD4^+CD45RO^+ T cells were stimulated with an anti-CD3/CD28 antibody, cultured in the presence of DMSO (control), retinoic acid or an RAR antagonist (LE540) for 8 days, re-stimulated with an anti-CD3/CD28 antibody and IL-2, or IL-7, and cultured. The division ability and proliferation ability of the T cells were evaluated. For evaluation of the division ability, Cell Trace (trade name) Violet Cell Proliferation Kit (manufactured by Life Technologies) was used. As a result, when the differentiation of T cells was enhanced by retinoic acid, both the division ability and the proliferation ability were decreased, whereas when the differentiation was suppressed by the RAR antagonist, both the division ability and the proliferation ability were increased (FIG. 21).

[8] = system: human CD4+ T cells transferred into NOG mouse; test: Reformation ability of cultured T cells in body of immunodeficient mouse; assay type: in vivo; details: T cells in spleen 4 weeks after transfer
Protocol: Human CD4^+CD45RO^+ T cells were stimulated with an anti-CD3/CD28 antibody, cultured in the presence of DMSO (control), retinoic acid or an RAR antagonist (LE540) for 8 days, and then transferred together with human PBMC from which T cells were removed into the body of an immunodeficient mouse lacking T cells, B cells and NK cells (NOG mouse). After 4 weeks, T cells in the spleen of the mouse were analyzed.

[9] = system: human CD4+CD45RO+ T cells; test: Enhancement of T cell differentiation by retinoic acid; assay type: cell-based; details: vs DMSO; stimulation with IL-2, anti-CD3/CD28 antibody, or both
Source text: Human CD4^+CD45RO^+ T cells were stimulated by various methods (IL-2, anti-CD3/CD28 antibody, and anti-CD3/CD28 antibody and IL2), and cultured in the presence of DMSO (control) or all-trans retinoic acid (hereinafter retinoic acid used in all Examples described below is all-trans retinoic acid). As a result, in the cell population cultured in the presence of retinoic acid, the proportion of central memory cells (upper right in a graph) was decreased, and the proportion of terminal effector cells (left lower in a graph) was increased (FIG. 19).

[10] = system: human CD4+CD45RO+ T cells; test: Culture with anti-CD3, anti-CD28, IL-2 and retinol for a week: cell number and intracellular cytokine assay (IFN-γ); assay type: cell-based; details: various concentrations of retinol, one week; retinol concentration-dependent
Protocol: The RDH10-targeting shRNA (sh #10-2, SEQ ID NO:18), or an shRNA targeting luciferase (sh-luc, SEQ ID NO:20) as a control was introduced into human CD4^+CD45RO^+ T cells using a lentivirus vector. In the same way, a lentivirus vector in which an RDH10 gene was incorporated was introduced into human CD4^+CD45RO^+ T cells to produce RDH10 high-expression T cells.
These cells were cultured in the presence of an anti-CD3 antibody, an anti-CD28 antibody and IL-2 together with various concentrations of retinol (all-trans type) for a week. Then, the number of cells was measured and at the same time, the frequency of cells producing IFN-γ was determined by an intracellular cytokine assay.

[11] = system: human CD4+CD45RO+ T cells; test: Suppression of RDH10 expression by shRNA: composition of T cell population; assay type: cell-based; details: compared with T cell population expressing control shRNA
Source text: A construct to express an shRNA targeting retinol dehydrogenase 10 and consisting of a sequence set forth in SEQ ID NO:18 (RDH10-targeting shRNA) was introduced into human CD4^+CD45RO^+ T cells. Specifically, using a lentivirus vector system, packaging cells (293T cell line) were co-transfected with a vector in which a DNA consisting of a nucleotide sequence of SEQ ID NO:19 was incorporated into a cloning site and a packaging vector to produce a recombinant virus, and the human CD4^+CD45RO^+ T cells were infected with the recombinant virus. Integration of the shRNA expression construct into a chromosome was confirmed based on the expression of GFP as a reporter which was located downstream of the shRNA expression construct. In the T cell population in which the RDH10-targeting shRNA was expressed by such a method, the proportion of terminal effector cells ([…]) was decreased and the proportion of central memory cells (CD127^+, CD62L^+) was increased, as compared with a T cell population in which a control shRNA (SEQ ID NO:20) was expressed by the same method (FIG. 2).

For `CCCCCCCCc1ccc(-c2ccc(C(=O)O)cc2)cc1` [AC55649], the “expression of CD62L” value [1] was “decreased” and the “proportion of memory T cells (CD62L+CD127+ cells)” value (“proportion of memory T cells” below) [1] was “decreased”.

With `CC1(C)CCC(C)(C)c2cc(C(=O)Nc3ccc(C(=O)O)cc3)ccc21` [AM580] the “expression of CD62L” value [1] was “decreased” and the “proportion of memory T cells” value [1] was “decreased”.

`CC1(C)CC=C(c2cnc3ccccc3c2)c2cc(C(=O)Nc3ccc(C(=O)O)cc3)ccc21` [BMS195614] was tested, and the “expression of CD62L” value [1] was “increased” and the “proportion of memory T cells” value [1] was “increased”.

In the case of `O=C(O)c1ccc2cc(-c3ccc(O)c(C45CC6CC(CC(C6)C4)C5)c3)ccc2c1` [CD437], the “expression of CD62L” value [1] is reported as “decreased” and the “proportion of memory T cells” value [1] is reported as “decreased”.

In the case of `CN1c2cc3c(cc2N=C(c2ccc(C(=O)O)cc2)c2ccccc21)C(C)(C)CCC3(C)C` [LE135], the “expression of CD62L” value [1] is reported as “increased” and the “proportion of memory T cells” value [1] is reported as “increased”.

For `CN1c2cc3c(cc2N=C(c2ccc(C(=O)O)cc2)c2ccc4ccccc4c21)C(C)(C)CCC3(C)C` [LE540], the “induction of central memory CD4+ T cells from terminal effector CD4+ T cells” value ([2]; LE540) was “induced again”, the “generation of memory T cells having high division ability and high proliferation ability” value ([2]; evaluation after re-stimulation) was “generated” and the “proliferation ability after re-stimulation with WT1332-pulsed PBMC” value ([3]; compared with cells cultured with DMSO or retinoic acid, no IL-2) was “high proliferation ability”. The “proportion of memory-type CD4+ T cells” value ([3]; stimulated with human WT1332) was “increased”, the “appearance frequency of memory T cells” value [4] was “high frequency” and the “tumor size (-fold increase relative to day 0)” value ([5]; day 21, compared with DMSO group and retinoic acid group) was “significantly small”. For the same compound, the survival period [5] was “extended”, the apoptotic cells [6] was “decreased” and the living cells [6] was “increased”. The “expression of CD62L” value [1] was “increased”, the “proportion of memory T cells” value [1] was “increased” and the “division ability of T cells” value [7] was “increased”. The “proliferation ability of T cells” value [7] was “increased”, the “ability to proliferate in the body of the immunodeficient mouse” value [8] was “high ability to proliferate” and the “differentiation state of T cells in the mouse” value [8] was “undifferentiated”.

With `CC1(C)CCC(C)(C)c2cc(C3(c4ccc5cc(C(=O)O)ccc5c4)SCCS3)ccc21` [MM11253] the “expression of CD62L” value [1] was “increased” and the “proportion of memory T cells” value [1] was “increased”.

With `CC1=C(/C=C/C(C)=C/C=C/C(C)=C/C(=O)O)C(C)(C)CCC1` [retinoic acid, all-trans retinoic acid] the “proportion of central memory cells” value [9] was “decreased”, the “proportion of terminal effector cells” value [9] was “increased” and the “appearance frequency of memory T cells” value [4] was “low”. For the same compound, the survival period [5] was “shortened”, the apoptotic cells [6] was “increased” and the living cells [6] was “decreased”. For the same compound, the “expression of CD62L” value [1] was “decreased”, the “proportion of memory T cells” value [1] was “decreased” and the “division ability of T cells” value [7] was “decreased”. The “proliferation ability of T cells” value [7] was “decreased”.

`CC1=C(/C=C/C(C)=C/C=C/C(C)=C/CO)C(C)(C)CCC1` [retinol, all-trans retinol] was tested, and the IFN-γ producing cells [10] was “increased” and the number of cells [10] was “increased”.

For “RDH10-targeting shRNA: shRNA targeting retinol dehydrogenase 10, sequence SEQ ID NO:18, expressed from a lentivirus vector (GUACACUUCUGGGCCACUGAACUUCCUGUCAUUUAGUGGUCCAGAAGUGUGC)”, the “proportion of central memory cells (CD127+, CD62L+)” value [11] was “increased” and the “proportion of terminal effector cells” value [11] was “decreased”.
